The record followed here is ChEMBL document CHEMBL1124111, “Studies directed toward ascertaining the active conformation of 1,4-dihydropyridine calcium entry blockers” (J Med Chem, 1988).

Data set [1] concerns Voltage-dependent L-type calcium channel (Cavia porcellus). The data set can be described thus: Bmax1 from dihydropyridine receptor binding assay in guinea pig myocardial membranes.
Data set [2] concerns the target Voltage-dependent L-type calcium channel (Cavia porcellus). As to the kind of experiment: Dissociation constant for inhibition of [3H]nitrendipine binding to guinea pig myocardial membranes. The conditions noted are these: read-out: Kd1.
Data set [3] has the same target. Described as above. To be noted: read-out: Kd2.
For the next data set, the species on record is Oryctolagus cuniculus. As to the kind of experiment: Compound was tested for ability to relax potassium-contracted rabbit aorta smooth muscle. It is filed as functional.
For data set [4], the system named is Voltage-dependent L-type calcium channel (Cavia porcellus). As to the kind of experiment: Bmax2 from dihydropyridine receptor binding assay in guinea pig myocardial membranes.
The target in data set [5] is Voltage-dependent L-type calcium channel (Cavia porcellus). The data set can be described thus: Dissociation constant for inhibition of [3H]nitrendipine binding to guinea pig myocardial membranes. To be noted: read-out: Kd2. This is another data set of the same source.

For `COC(=O)C1=C(C)N=C(C)/C(=C(\O)OC)C1c1cccc([N+](=O)[O-])c1Cl` (stereo unspecified), in data set [1], the Bmax1 came out at 79%. Also, the Kd stood at 0.23 nM in data set [2] and 85 nM in data set [3]. Also, the concentration for half-maximal inhibition (IC50) – broadly, the concentration at which inhibition is half-maximal – in the data set listed under Oryctolagus cuniculus was 1 nM. In addition, the Bmax2 in data set [4] worked out at 21%.
For the molecule `COC(=O)C1=C(C)N=C(C)/C(=C(\O)OC)C1c1ccccc1Cl` (stereo unspecified), the Bmax1 in data set [1] stood at 21%. The Kd amounted to 0.006 nM in data set [2] and 1 nM in data set [3]. In the data set filed under Oryctolagus cuniculus, the 50% inhibitory concentration (IC50) amounted to 3 nM. Further, the Bmax2 in data set [4] is reported as 79%.
Regarding `COC(=O)C1=C(C)N=C(C)/C(=C(\O)OC)C1c1cccc(C#N)c1` (stereo unspecified), the Bmax1 in data set [1] is 83%. The Kd in data set [2] is 2.15 nM; in data set [3] it was 152 nM. Also, the concentration for half-maximal inhibition (IC50) in the data set filed under Oryctolagus cuniculus was determined as 11.1 nM. In data set [4], the Bmax2 turned out to be 17%.
Molecule `COC(=O)C1=C(C)NC(C)=C(C(=O)OC)C1c1ccccc1[N+](=O)[O-]` [NIFEDIPINE] displayed an IC50 in the data set listed under Oryctolagus cuniculus of 0.5 nM.
As for `COC(=O)C1=C(C)N=C(C)/C(=C(\O)OC)C1c1ccc([N+](=O)[O-])cc1Cl` (stereo unspecified), the Kd in data set [5] is 107 nM; in data set [2], 1.25 nM. The Bmax1 in data set [1] worked out at 8%. This molecule also displayed an IC50 in the data set listed under Oryctolagus cuniculus of 185 nM. Besides, the Bmax2 in data set [4] is reported as 92%.
For the molecule `COC(=O)C1=C(C)N=C(C)/C(=C(\O)OC)C1c1cc([N+](=O)[O-])ccc1Cl` (stereo unspecified), in data set [1], the Bmax1 stood at 49%. The Kd in data set [2] came to 0.95 nM; in data set [3], 74.4 nM. The molecule further displayed an IC50 in the data set filed under Oryctolagus cuniculus of 13.6 nM. The Bmax2 in data set [4] was 51%.
